In ChEMBL document CHEMBL4507304, “Data for DCP probe TP-021” (2021):

What was measured:
[1] = molecular target: Alpha-2C adrenergic receptor (Homo sapiens) (UniProt P18825); settings: Compound concentration 10.0 uM
[2] = molecular target: Serine/threonine-protein kinase PAK 5 (Homo sapiens) (UniProt Q9P286); settings: Compound concentration 1000.0 nM
[3] = molecular target: cGMP-dependent protein kinase 2 (Homo sapiens) (UniProt Q13237); settings: Compound concentration 1000.0 nM
[4] = molecular target: Histamine H1 receptor (Homo sapiens) (UniProt P35367); settings: Compound concentration 10.0 uM
Sequence of Histamine H1 receptor (Homo sapiens) (P35367 whole entry): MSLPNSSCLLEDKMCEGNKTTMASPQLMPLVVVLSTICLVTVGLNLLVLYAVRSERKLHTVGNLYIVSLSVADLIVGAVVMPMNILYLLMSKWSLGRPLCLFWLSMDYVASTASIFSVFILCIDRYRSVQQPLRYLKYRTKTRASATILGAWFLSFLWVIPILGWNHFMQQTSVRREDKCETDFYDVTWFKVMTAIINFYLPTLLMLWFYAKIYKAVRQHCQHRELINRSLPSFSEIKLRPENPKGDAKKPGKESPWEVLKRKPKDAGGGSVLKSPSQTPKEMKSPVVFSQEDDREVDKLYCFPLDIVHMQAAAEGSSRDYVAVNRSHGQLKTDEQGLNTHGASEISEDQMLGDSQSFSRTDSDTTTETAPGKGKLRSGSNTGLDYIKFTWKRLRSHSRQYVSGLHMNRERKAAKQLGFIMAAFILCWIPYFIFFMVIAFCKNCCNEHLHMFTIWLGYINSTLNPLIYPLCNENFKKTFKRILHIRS

[5] = molecular target: Interferon-induced, double-stranded RNA-activated protein kinase (Homo sapiens) (UniProt P19525); settings: Compound concentration 1000.0 nM
[6] = molecular target: Protein kinase C delta type (Homo sapiens) (UniProt Q05655); settings: Compound concentration 1000.0 nM
[7] = molecular target: Serine/threonine-protein kinase 38-like (Homo sapiens) (UniProt Q9Y2H1); settings: Compound concentration 1000.0 nM
[8] = molecular target: Inhibitor of nuclear factor kappa-B kinase subunit epsilon (Homo sapiens) (UniProt Q14164); settings: Compound concentration 1000.0 nM
[9] = molecular target: 5-hydroxytryptamine receptor 2C (Homo sapiens) (UniProt P28335); settings: Compound concentration 10.0 uM
[10] = molecular target: Calcium/calmodulin-dependent protein kinase kinase 1 (Homo sapiens) (UniProt Q8N5S9); settings: Compound concentration 1000.0 nM
Sequence of Calcium/calmodulin-dependent protein kinase kinase 1 (Homo sapiens) (Q8N5S9 whole entry, looked up): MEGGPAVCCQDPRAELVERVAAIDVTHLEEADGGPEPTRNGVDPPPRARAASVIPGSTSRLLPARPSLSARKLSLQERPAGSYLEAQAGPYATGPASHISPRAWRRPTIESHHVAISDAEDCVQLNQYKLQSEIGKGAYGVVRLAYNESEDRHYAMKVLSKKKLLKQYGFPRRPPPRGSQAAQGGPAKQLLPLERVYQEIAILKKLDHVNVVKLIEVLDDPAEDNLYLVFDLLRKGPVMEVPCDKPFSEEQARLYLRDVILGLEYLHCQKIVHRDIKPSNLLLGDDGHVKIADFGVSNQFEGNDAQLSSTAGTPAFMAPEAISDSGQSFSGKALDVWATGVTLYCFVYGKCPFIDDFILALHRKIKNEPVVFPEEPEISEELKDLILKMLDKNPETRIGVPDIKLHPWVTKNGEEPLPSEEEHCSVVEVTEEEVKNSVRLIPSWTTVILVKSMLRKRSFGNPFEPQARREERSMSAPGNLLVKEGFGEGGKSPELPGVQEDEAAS

[11] = molecular target: Ribosomal protein S6 kinase alpha-2 (Homo sapiens) (UniProt Q15349); settings: Compound concentration 1000.0 nM
[12] = molecular target: SRSF protein kinase 2 (Homo sapiens) (UniProt P78362); settings: Compound concentration 1000.0 nM
[13] = molecular target: Serine/threonine-protein kinase LATS1 (Homo sapiens) (UniProt O95835); settings: Compound concentration 1000.0 nM
Sequence of Serine/threonine-protein kinase LATS1 (Homo sapiens) (O95835 whole entry): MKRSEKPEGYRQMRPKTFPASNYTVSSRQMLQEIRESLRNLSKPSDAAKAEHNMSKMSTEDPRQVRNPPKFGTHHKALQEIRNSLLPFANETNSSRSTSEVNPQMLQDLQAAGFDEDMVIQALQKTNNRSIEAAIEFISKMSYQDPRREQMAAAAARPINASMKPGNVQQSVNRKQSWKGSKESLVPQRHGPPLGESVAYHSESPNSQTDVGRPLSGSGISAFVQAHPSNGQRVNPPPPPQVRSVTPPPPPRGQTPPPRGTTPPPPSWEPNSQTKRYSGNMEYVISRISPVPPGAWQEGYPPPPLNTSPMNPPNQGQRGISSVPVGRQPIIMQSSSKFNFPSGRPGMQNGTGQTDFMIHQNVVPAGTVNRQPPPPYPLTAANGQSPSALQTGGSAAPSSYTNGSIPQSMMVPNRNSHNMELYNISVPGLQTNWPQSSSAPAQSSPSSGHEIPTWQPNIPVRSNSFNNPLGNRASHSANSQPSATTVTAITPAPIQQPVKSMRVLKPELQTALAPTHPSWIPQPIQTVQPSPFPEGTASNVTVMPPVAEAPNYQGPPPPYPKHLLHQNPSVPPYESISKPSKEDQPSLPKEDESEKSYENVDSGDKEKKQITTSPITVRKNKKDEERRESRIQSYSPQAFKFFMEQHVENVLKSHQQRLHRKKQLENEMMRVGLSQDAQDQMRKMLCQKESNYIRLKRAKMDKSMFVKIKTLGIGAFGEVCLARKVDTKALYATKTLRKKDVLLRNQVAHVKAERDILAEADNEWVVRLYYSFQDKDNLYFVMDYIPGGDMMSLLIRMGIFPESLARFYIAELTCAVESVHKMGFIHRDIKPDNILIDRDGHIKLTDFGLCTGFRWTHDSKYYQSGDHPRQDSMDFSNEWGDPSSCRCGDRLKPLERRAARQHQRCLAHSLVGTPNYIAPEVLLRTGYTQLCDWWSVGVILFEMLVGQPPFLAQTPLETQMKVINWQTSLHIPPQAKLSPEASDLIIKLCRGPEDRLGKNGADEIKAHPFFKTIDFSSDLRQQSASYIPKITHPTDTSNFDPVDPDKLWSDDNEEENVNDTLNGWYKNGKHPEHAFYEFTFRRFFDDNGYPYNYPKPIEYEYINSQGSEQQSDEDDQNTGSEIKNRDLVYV

[14] = molecular target: NT-3 growth factor receptor (Homo sapiens) (UniProt Q16288); settings: Compound concentration 1000.0 nM
Sequence of NT-3 growth factor receptor (Homo sapiens) (Q16288 32-839 limits assumed): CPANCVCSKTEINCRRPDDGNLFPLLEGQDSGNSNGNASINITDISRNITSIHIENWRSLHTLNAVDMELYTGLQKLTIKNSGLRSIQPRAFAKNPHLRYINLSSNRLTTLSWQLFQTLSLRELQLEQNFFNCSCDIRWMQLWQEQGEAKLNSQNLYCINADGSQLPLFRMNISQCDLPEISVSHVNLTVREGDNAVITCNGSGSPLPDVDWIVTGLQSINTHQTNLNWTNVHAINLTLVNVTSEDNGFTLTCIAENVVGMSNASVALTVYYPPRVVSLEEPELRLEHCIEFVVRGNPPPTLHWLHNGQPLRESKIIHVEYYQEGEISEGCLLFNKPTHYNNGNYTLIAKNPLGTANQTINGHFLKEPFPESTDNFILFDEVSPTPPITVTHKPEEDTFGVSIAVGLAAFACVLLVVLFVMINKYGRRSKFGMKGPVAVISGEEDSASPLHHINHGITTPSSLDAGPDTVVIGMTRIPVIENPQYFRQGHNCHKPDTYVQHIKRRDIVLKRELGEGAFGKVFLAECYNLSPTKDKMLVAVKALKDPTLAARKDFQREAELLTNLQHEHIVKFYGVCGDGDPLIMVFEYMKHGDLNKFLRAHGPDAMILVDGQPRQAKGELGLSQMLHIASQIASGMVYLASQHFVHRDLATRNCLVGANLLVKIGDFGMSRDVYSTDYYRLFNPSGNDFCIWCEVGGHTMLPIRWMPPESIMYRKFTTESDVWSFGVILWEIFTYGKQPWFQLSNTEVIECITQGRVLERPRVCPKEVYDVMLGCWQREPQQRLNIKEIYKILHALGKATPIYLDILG

[15] = molecular target: D(1B) dopamine receptor (Homo sapiens) (UniProt P21918); settings: Compound concentration 10.0 uM
[16] = molecular target: Phosphatidylinositol 4,5-bisphosphate 3-kinase catalytic subunit delta isoform (Homo sapiens) (UniProt O00329); settings: Compound concentration 1000.0 nM
[17] = molecular target: D(2) dopamine receptor (Homo sapiens) (UniProt P14416); settings: Compound concentration 10.0 uM
[18] = molecular target: Serine/threonine-protein kinase Nek3 (Homo sapiens) (UniProt P51956); settings: Compound concentration 1000.0 nM
[19] = molecular target: Alpha-1A adrenergic receptor (Homo sapiens) (UniProt P35348); settings: Compound concentration 10.0 uM
[20] = molecular target: Beta-3 adrenergic receptor (Homo sapiens) (UniProt P13945); settings: Compound concentration 10.0 uM

Sequence of cGMP-dependent protein kinase 2 (Homo sapiens) (Q13237 whole entry): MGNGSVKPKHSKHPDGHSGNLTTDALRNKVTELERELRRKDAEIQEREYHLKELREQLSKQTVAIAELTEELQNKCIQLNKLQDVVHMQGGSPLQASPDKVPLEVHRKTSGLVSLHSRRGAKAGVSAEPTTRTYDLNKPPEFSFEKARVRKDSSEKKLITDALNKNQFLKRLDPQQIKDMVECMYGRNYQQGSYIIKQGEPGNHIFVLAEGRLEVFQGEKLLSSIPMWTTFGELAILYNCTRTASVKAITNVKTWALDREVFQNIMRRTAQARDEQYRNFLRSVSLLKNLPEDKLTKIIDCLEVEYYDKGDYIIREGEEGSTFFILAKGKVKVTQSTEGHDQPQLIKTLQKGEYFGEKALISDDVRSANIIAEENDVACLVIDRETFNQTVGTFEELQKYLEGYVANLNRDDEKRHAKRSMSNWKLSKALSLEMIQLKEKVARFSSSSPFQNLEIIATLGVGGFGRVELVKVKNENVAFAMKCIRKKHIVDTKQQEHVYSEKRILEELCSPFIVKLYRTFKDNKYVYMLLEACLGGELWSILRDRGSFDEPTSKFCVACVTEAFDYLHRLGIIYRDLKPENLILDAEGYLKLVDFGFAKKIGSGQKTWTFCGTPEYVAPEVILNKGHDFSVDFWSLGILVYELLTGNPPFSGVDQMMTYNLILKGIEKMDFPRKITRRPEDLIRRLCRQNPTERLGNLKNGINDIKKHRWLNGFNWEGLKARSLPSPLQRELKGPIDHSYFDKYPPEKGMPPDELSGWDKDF
Sequence of Serine/threonine-protein kinase PAK 5 (Homo sapiens) (Q9P286 whole entry, looked up): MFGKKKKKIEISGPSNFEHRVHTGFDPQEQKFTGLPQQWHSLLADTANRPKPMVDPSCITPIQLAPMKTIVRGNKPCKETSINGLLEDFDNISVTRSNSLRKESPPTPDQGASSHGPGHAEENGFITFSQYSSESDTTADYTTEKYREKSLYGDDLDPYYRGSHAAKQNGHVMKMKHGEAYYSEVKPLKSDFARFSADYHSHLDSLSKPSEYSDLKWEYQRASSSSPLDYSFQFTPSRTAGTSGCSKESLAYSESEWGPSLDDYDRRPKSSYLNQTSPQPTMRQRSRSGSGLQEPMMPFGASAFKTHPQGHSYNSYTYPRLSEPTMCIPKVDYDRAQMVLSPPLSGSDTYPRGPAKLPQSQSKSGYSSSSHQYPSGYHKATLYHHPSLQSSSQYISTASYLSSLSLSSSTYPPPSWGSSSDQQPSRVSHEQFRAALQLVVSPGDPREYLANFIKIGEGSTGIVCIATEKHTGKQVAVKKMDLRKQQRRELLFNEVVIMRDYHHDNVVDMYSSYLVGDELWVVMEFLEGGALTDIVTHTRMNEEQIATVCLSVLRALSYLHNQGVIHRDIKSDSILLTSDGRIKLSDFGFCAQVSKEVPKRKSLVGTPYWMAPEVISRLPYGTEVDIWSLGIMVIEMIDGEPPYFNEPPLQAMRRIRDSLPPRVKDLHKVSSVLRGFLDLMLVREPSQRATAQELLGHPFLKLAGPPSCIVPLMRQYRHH
Sequence of Alpha-2C adrenergic receptor (Homo sapiens) (P18825 whole entry): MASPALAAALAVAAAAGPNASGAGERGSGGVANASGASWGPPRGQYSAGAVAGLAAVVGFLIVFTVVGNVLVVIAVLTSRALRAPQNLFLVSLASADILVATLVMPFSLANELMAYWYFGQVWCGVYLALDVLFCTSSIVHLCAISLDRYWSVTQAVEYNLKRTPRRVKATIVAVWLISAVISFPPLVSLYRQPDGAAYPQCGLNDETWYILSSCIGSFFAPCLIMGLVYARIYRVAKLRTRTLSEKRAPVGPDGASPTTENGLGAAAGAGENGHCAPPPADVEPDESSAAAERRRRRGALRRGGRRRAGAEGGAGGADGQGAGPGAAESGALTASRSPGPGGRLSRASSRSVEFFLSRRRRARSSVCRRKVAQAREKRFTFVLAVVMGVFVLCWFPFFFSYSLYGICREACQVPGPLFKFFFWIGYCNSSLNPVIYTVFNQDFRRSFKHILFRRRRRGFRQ

N#Cc1ccc(Nc2ccc3[nH]c(=O)[nH]c3c2)c(Cl)c1
inactive: inhibition [1] 4.16% | residual activity [2] 100% | residual activity [3] 87% | inhibition [4] 14.7% | residual activity [5] 57% | residual activity [6] 100% | residual activity [7] 53% | residual activity [8] 100% | inhibition [9] -9.96% | residual activity [10] 100% | residual activity [11] 100% | residual activity [12] 100% | residual activity [13] 76% | residual activity [14] 100%

O=C1CCc2cc(Nc3cc(OC4CCOCC4)c([N+](=O)[O-])cc3Cl)ccc2N1
inactive: inhibition [1] -0.13% | inhibition [15] 13% | residual activity [2] 100% | residual activity [3] 85% | inhibition [4] 17% | residual activity [16] 94% | inhibition [17] 2.86% | residual activity [6] 100% | residual activity [8] 90% | residual activity [18] 100% | inhibition [19] -8.76% | residual activity [10] 100% | residual activity [11] 100% | residual activity [12] 100% | inhibition [20] 7.73% | residual activity [13] 81% | residual activity [14] 100%
